Experimental data as given in patent US20030073699A1, “Compounds and methods to treat cardiac failure and other disorders” (priority 1998, published 2003).

Experiments:
Type in all cases: biochemical
p38α = p38α (Homo sapiens, UniProt Q16539); assay: p38 kinase inhibition assay, activity for p38α; settings: for IC50: inhibition of p38α, based on IC50 curves; for Fold increase Piperidinyl/Piperazinyl: p38α potency of piperidinyl versus corresponding piperazinyl compound
p38 kinase = p38 kinase (Homo sapiens, UniProt Q16539); assay: Assay for p38 kinase inhibition (Example 19); settings: tested as described in Example 19
Method: (§1) The compounds to be tested were solubilized in DMSO and diluted into water to the desired concentrations. The p38 kinase was diluted to 10 μg/ml into a buffer containing 20 mM MOPS, pH 7.0,25 mM beta-glycerol phosphate, 2 mg/ml gelatin; 0.5 mM EGTA, and 4 mM DTT.
(§2) The reaction was carried out by mixing 20 μl test compound with 10 μl of a substrate cocktail containing 500 μg/ml peptide substrate and 0.2 mM ATP (+200 μCi/ml gamma-32P-ATP) in a 4× assay buffer. The reaction was initiated by the addition of 10 μl of p38 kinase. […] After a 40 minute incubation at room temperature, the reaction was stopped by the addition of 10 μl per reaction of 0.25 M phosphoric acid.
A portion of the reaction was spotted onto a disk of P81 phosphocellulose paper, the filters were dried for 2 minutes and then washed 4× in 75 mM H3PO4. The filters were rinsed briefly in 95% ethanol, dried, then placed in scintillation vials with liquid scintillation cocktail. […]
Counts incorporated are determined on a scintillation counter. Relative enzyme activity is calculated by subtracting background counts (counts measured in the absence of enzyme) from each result, and comparing the resulting counts to those obtained in the absence of inhibitor. IC50 values were determined with curve-fitting plots available with common software packages. Approximate IC50 values were calculated using formula […]

p38β = p38β (Homo sapiens, UniProt Q15759); assay: p38 kinase inhibition assay, specificity versus p38β; settings: for IC50: read-out: P38-β IC50; for IC50 ratio β/α: specificity for p38α as compared to p38β
Method: as §1, §2
A portion of the reaction was spotted onto a disk of P81 phosphocellulose paper, the filters were dried for 2 minutes and then washed 4× in 75 mM H3PO4. The filters were rinsed briefly in 95% ethanol, dried, then placed in scintillation vials with liquid scintillation cocktail.
Alternatively, the substrate is previously biotinylated and the resulting reactions are spotted on SAM^2™ streptavidin filter squares (Promega). The filters are washed 4× in 2M NaCl, 4× in 2M NaCl with 1% phosphoric acid, 2× in water, and briefly in 95% ethanol. The filter squares are dried and placed in scintillation vials with liquid scintillation cocktail.
Counts incorporated are determined on a scintillation counter. Relative enzyme activity is calculated by subtracting background counts (counts measured in the absence of enzyme) from each result, and comparing the resulting counts to those obtained in the absence of inhibitor. IC50 values were determined with curve-fitting plots available with common software packages. Approximate IC50 values were calculated using formula
where A=fractional activity and i=total inhibitor concentration.
The compounds of the invention as well as those containing piperazine, generally, are specific for p38α as compared to p38β. […] It is seen that the specificity for α as opposed to β is generally of the order of ten-fold.

Sequence of p38α (Q16539 whole entry): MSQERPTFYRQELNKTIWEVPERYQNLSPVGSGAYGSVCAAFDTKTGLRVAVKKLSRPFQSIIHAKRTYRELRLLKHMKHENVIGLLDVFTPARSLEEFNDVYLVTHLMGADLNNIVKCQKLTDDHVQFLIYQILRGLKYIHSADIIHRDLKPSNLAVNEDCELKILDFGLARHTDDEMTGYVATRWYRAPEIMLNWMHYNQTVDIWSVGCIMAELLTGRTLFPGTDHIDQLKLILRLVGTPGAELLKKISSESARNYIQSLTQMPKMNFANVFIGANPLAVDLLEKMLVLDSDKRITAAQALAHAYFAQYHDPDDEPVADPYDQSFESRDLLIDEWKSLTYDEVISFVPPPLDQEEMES
Sequence of p38β (Q15759 whole entry): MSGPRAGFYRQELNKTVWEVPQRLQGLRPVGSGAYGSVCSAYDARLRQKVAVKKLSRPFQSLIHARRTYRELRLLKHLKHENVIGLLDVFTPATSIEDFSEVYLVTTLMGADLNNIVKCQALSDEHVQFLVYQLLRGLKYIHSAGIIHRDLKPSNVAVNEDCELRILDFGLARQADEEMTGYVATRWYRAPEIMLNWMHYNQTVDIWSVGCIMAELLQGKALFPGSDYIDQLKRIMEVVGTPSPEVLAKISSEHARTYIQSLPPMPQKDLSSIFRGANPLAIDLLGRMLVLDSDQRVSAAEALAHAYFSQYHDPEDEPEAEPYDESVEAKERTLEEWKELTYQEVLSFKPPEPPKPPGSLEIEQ
Sequence of p38 kinase (Q16539 whole entry): as the sequence (Q16539 whole entry) above

Molecule | IC50 (p38α) | IC50 (p38 kinase) | IC50 (p38β) | IC50 ratio β/α (p38β) | Fold increase Piperidinyl/Piperazinyl (p38α)
4-(4-benzyl piperazinyl)-indole-2-carboxamide [Piperazinyl 2] | > 30 µM |  |  |  | 
CC1CC(Cc2ccccc2)CCN1C(=O)c1ccc2[nH]ccc2c1 (stereo not shown) [Example 18] |  | 0.28 µM |  |  | 
O=C(c1c[nH]c2ccccc12)N1CCN(Cc2ccccc2)CC1 [Piperazinyl 3, reference compound] | 4.74 µM |  | 34 µM | 7.17 | 
O=C(c1cccc2[nH]ccc12)N1CCN(Cc2ccccc2)CC1 [Piperazinyl 4, reference compound] | 1.54 µM |  | 24 µM | 15.6 | 
O=C(c1ccc2[nH]ccc2c1)N1CCN(Cc2ccccc2)CC1 [Piperazinyl 5] |  |  | 25.8 µM | 15.1 | 
O=C(c1ccc2cc[nH]c2c1)N1CCN(Cc2ccccc2)CC1 [Piperazinyl 6] | 5.52 µM |  | 39.1 µM | 7.08 | 
O=C(c1cccc2cc[nH]c12)N1CCN(Cc2ccccc2)CC1 [Piperazinyl 7] | > 30 µM |  |  |  | 
O=C(c1cc2ccccc2[nH]1)N1CCC(Cc2ccccc2)CC1 [Piperidinyl 2] | 2.66 µM |  |  |  | 
O=C(c1c[nH]c2ccccc12)N1CCC(Cc2ccccc2)CC1 [Piperidinyl 3] | 0.163 µM |  | 1.77 µM | 10.9 | 29.1
O=C(c1cccc2[nH]ccc12)N1CCC(Cc2ccccc2)CC1 [Piperidinyl 4, 4-benzylpiperidinyl-indoie-4-carboxamide] | 0.159 µM |  | 2.43 µM | 15.3 | 9.7
O=C(c1ccc2[nH]ccc2c1)N1CCC(Cc2ccccc2)CC1 [Piperidinyl 5, 4-benzylpiperidinyl-indole-5-carboxamide] | 0.15 µM |  | 3.02 µM |  | 
O=C(c1ccc2cc[nH]c2c1)N1CCC(Cc2ccccc2)CC1 [Piperidinyl 6, 4-benzylpiperidinyl-indole-6-carboxamide] |  |  | 3.83 µM |  | 
O=C(c1cccc2cc[nH]c12)N1CCC(Cc2ccccc2)CC1 [Piperidinyl 7] | 7.04 µM |  |  |  | >4.3
